Where two headings read alike, the source gives them in different places.
Experiments:
Format in all cases: biochemical
mouse plasma DPPIV = target: T1, mouse plasma DPPIV (Mus musculus, UniProt P28843); experiment: DPPIV enzymatic activity in mouse plasma; conditions: C57BL/6 mouse plasma; H-Gly-Pro-AMC substrate
T1 construct: from tissue; host or cells: mouse plasma (C57BL/6, EDTA)
Experimental: Approximately 500 μL of whole blood from one C57BL/6 mouse was harvested into BD Microtainer® tubes (K2) EDTA (#365974, Becton Dickinson and Co.) via terminal cardiac puncture. The blood sample was immediately centrifuged at approximately 9000 g at 4° C. for 5 minutes. Plasma was separated and stored at −80° C. in aliquots of 300 μL. To assay baseline DPPIV enzymatic exopeptidase activity, 5 μL of thawed, mouse plasma was diluted (1:5) in buffer (100 mM Tris-HCl, 400 mM NaCl, 50 mM salicylic acid, 1 mM EDTA, pH 7.5) and mixed with 35 µL of the same buffer before being pre-incubated with different concentrations of 10 μL of test compounds or DMSO vehicle for 15 minutes at 37° C. in 96-well black plates (Nunc, #237108). After pre-incubation, 50 μL of 200 μM dipeptide substrate H-Gly-Pro-AMC (Bachem, #L-1225) was added to the mixture. The assay was performed for 1 hour at 37° C. 7-Amino-4-Methylcoumarin (AMC) release was detected measuring fluorescence at an excitation wavelength of 360 nm and an emission wavelength of 460 nm using a Multifunction Microplate Reader (Synergy 4, Biotek). All measurements were carried out at least in duplicate.

[1] = target: T2, recombinant human PREP (rhPREP) (Homo sapiens, UniProt P48147); experiment: PREP enzymatic activity assay; conditions: Z-Gly-Pro-AMC substrate
T2 sequence (P48147 1-710): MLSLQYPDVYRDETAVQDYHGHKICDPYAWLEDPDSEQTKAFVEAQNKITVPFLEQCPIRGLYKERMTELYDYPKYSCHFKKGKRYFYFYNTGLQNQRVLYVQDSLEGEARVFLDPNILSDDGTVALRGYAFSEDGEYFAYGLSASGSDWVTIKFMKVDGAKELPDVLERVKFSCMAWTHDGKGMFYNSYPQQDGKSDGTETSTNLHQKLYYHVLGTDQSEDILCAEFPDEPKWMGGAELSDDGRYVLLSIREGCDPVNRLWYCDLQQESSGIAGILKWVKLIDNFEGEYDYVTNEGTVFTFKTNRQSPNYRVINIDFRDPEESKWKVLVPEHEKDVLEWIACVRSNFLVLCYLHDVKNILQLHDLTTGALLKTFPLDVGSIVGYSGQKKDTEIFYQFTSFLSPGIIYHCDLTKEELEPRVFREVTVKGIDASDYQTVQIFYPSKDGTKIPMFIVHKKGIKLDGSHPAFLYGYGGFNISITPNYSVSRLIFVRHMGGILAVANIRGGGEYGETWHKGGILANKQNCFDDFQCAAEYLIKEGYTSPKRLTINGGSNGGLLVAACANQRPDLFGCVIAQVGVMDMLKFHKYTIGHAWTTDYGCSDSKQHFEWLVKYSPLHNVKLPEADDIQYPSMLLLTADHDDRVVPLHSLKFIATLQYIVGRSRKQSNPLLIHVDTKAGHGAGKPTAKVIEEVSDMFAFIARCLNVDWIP
Experimental: 7-Amino-4-Methylcoumarin (AMC) release was detected by measuring fluorescence at Ex/Em 380/460 nm using a Multifunction Microplate Reader (Synergy 4, Biotek). All measurements were carried out in triplicate.

mouse plasma FAPα = target: T3, mouse plasma FAPα (Mus musculus, UniProt P97321); experiment: FAPα enzymatic activity in mouse plasma; conditions: C57BL/6 mouse plasma
T3 construct: from tissue; host or cells: mouse plasma (C57BL/6, EDTA)
T3 sequence (P97321 24-761 limits assumed): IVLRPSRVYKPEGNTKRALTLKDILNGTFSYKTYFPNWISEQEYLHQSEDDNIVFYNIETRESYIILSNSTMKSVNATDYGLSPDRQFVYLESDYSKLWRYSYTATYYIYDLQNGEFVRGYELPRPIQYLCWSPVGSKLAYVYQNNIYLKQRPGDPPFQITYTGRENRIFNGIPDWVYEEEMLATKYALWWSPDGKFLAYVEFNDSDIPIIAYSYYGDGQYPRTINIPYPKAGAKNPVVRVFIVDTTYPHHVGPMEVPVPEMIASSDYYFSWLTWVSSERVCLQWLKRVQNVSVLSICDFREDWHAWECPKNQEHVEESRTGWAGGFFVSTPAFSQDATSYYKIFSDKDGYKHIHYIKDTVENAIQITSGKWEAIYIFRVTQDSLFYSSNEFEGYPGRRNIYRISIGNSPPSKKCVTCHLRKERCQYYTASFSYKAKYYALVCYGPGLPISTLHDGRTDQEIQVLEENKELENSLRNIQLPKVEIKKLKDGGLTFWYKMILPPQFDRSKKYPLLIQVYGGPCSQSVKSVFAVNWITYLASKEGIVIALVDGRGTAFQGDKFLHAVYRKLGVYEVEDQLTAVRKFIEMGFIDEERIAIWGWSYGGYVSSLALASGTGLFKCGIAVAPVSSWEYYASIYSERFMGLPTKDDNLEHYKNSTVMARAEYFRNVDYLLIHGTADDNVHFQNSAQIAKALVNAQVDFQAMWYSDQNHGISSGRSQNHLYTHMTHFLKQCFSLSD
Experimental: The blood sample was immediately centrifuged at approximately 9000 g at 4° C. for 5 minutes. Plasma was separated and stored at −80° C. in aliquots of 300 μL. […] The assay was performed for 1 hour at 37° C. protected from light. 7-Amino-4-Methylcoumarin (AMC) release was detected measuring fluorescence at an excitation wavelength of 380 nm and an emission wavelength of 460 nm using a Multifunction Microplate Reader (Synergy 4, Biotek). All measurements were carried out at least as a single point.

[2] = PRXS-AMC substrate, read-out: mouse plasma FAPα (PRXS-AMC) (exo IC50)
[3] = Z-Gly-Pro-AMC substrate, read-out: mouse plasma FAPα (Z-Gly-Pro-AMC) (exo IC50)

T1 sequence (P28843 37-760 limits assumed): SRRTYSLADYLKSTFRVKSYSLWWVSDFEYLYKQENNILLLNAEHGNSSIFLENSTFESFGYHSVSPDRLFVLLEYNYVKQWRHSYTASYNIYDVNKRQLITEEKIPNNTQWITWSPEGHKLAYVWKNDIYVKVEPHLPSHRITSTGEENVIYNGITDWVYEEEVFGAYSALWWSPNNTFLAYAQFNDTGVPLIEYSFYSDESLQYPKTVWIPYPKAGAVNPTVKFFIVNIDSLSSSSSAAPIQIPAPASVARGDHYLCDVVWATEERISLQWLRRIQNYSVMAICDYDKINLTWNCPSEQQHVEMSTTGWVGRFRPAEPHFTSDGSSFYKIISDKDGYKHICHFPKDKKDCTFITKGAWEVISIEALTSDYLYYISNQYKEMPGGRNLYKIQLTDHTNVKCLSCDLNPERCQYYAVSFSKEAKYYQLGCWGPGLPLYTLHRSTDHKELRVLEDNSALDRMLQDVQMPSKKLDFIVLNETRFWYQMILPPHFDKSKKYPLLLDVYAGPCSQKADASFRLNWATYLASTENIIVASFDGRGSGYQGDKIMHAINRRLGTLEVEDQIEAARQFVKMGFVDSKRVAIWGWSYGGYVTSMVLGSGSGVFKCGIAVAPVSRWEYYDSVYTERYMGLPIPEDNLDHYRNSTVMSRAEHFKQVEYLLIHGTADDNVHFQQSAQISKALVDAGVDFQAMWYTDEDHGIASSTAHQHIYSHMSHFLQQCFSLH

| Structure (SMILES) | IC50 [1] [µM] | IC50 (mouse plasma FAPα; [3]) [nM] | IC50 (mouse plasma DPPIV) [µM] | IC50 (mouse plasma FAPα; [2]) [nM] |
| --- | --- | --- | --- | --- |
| N#C[C@@H]1CC(F)(F)CN1C(=O)CNC(=O)c1ccncc1-c1cc(F)cc(F)c1 [Compound 47, (S)—N-(2-(2-cyano-4,4-difluoropyrrolidin-1-yl)-2-oxoethyl)-3-(3,5-difluorophenyl)isonicotinamide] | > 10 | < 1000 | > 10 | < 1000 |
| N#C[C@@H]1CC(F)(F)CN1C(=O)CNC(=O)c1ccncc1-c1ccccc1 [Compound 13, (S)—N-(2-(2-cyano-4,4-difluoropyrrolidin-1-yl)-2-oxoethyl)-3-phenylisonicotinamide] | > 10 | < 1000 | > 10 | < 1000 |
| C=C(c1ccccc1)c1cnccc1C(=O)NCC(=O)N1CC(F)(F)C[C@H]1C#N [Compound 122, (S)—N-(2-(2-cyano-4,4-difluoropyrrolidin-1-yl)-2-oxoethyl)-3-(1-phenylvinyl)isonicotinamide] | > 10 |  | > 10 | < 1000 |
| N#C[C@@H]1CC(F)(F)CN1C(=O)CNC(=O)c1ccncc1C1=CCNCC1 [Compound 105, (S)—N-(2-(2-cyano-4,4-difluoropyrrolidin-1-yl)-2-oxoethyl)-1′,2′,3′,6′-tetrahydro-[3,4′-bipyridine]-4-carboxamide 2,2,2-trifluoroacetate] | > 10 |  | > 10 | < 1000 |
| N#C[C@@H]1CC(F)(F)CN1C(=O)CNC(=O)c1ccncc1C1CC1 [Compound 24, (S)—N-(2-(2-cyano-4,4-difluoropyrrolidin-1-yl)-2-oxoethyl)-3-cyclopropylisonicotinamide] | 1 to 10 | < 1000 | > 10 | < 1000 |
| N#C[C@@H]1CC(F)(F)CN1C(=O)CNC(=O)c1c[nH]c(=O)cc1-c1ccc(F)cc1 [Compound 109, (S)—N-(2-(2-cyano-4,4-difluoropyrrolidin-1-yl)-2-oxoethyl)-4-(4-fluorophenyl)-6-oxo-1,6-dihydropyridine-3-carboxamide] | > 10 |  | 1 to 10 | < 1000 |
| N#C[C@@H]1CC(F)(F)CN1C(=O)CNC(=O)c1ccncc1-c1ccc(F)cc1 [Compound 52, (S)—N-(2-(2-cyano-4,4-difluoropyrrolidin-1-yl)-2-oxoethyl)-3-(4-fluorophenyl)isonicotinamide] | > 10 | < 1000 | > 10 | < 1000 |

Now from value to molecule, other results behind:

| IC50 [1] [µM] | IC50 (mouse plasma FAPα; [3]) [nM] | Structure (SMILES) | IC50 (mouse plasma DPPIV) [µM] | IC50 (mouse plasma FAPα; [2]) [nM] |
| --- | --- | --- | --- | --- |
| > 10 | < 1000 | N#C[C@@H]1CC(F)(F)CN1C(=O)CNC(=O)c1c[nH]c(=O)c(-c2ccccc2)c1 [Compound 14, (S)—N-(2-(2-cyano-4,4-difluoropyrrolidin-1-yl)-2-oxoethyl)-6-oxo-5-phenyl-1,6-dihydropyridine-3-carboxamide] | 1 to 10 | < 1000 |
| 1 to 10 | < 1000 | N#C[C@@H]1CC(F)(F)CN1C(=O)CNC(=O)c1ccncc1Cc1ccccc1 [Compound 50, (S)-3-benzyl-N-(2-(2-cyano-4,4-difluoropyrrolidin-1-yl)-2-oxoethyl)isonicotinamide] |  | < 1000 |
| > 10 | < 1000 | Cn1ncc2c(-c3cnccc3C(=O)NCC(=O)N3CC(F)(F)C[C@H]3C#N)cccc21 [Compound 87, (S)—N-(2-(2-cyano-4,4-difluoropyrrolidin-1-yl)-2-oxoethyl)-3-(1-methyl-1H-indazol-4-yl)isonicotinamide] | 1 to 10 | < 1000 |
| 1 to 10 | < 1000 | C=Cc1cnccc1C(=O)NCC(=O)N1CC(F)(F)C[C@H]1C#N [Compound 40, (S)—N-(2-(2-cyano-4,4-difluoropyrrolidin-1-yl)-2-oxoethyl)-3-vinylisonicotinamide] | > 10 | < 1000 |
| 1 to 10 | < 1000 | N#C[C@@H]1CC(F)(F)CN1C(=O)CNC(=O)c1c[nH]c(=O)c2ccc(F)cc12 [Compound 26, (S)—N-(2-(2-cyano-4,4-difluoropyrrolidin-1-yl)-2-oxoethyl)-6-fluoro-1-oxo-1,2-dihydroisoquinoline-4-carboxamide] | < 1 | < 1000 |
| > 10 | < 1000 | N#C[C@@H]1CC(F)(F)CN1C(=O)CNC(=O)c1ccncc1N1CCOCC1 [Compound 88, N-[2-[(2S)-2-cyano-4,4-difluoro-pyrrolidin-1-yl]-2-oxo-ethyl]-3-morpholino-pyridine-4-carboxamide] | 1 to 10 | < 1000 |
| > 10 | < 1000 | N#C[C@@H]1CC(F)(F)CN1C(=O)CNC(=O)c1ccncc1-c1cc(Cl)ccc1F [Compound 54, (S)-3-(5-chloro-2-fluorophenyl)-N-(2-(2-cyano-4,4-difluoropyrrolidin-1-yl)-2-oxoethyl)isonicotinamide] | > 10 | < 1000 |
| 1 to 10 | < 1000 | N#C[C@@H]1CC(F)(F)CN1C(=O)CNC(=O)c1c[nH]c(=O)c2ccccc12 [Example 1, (S)—N-(2-(2-cyano-4,4-difluoropyrrolidin-1-yl)-2-oxoethyl)-1-oxo-1,2-dihydroisoquinoline-4-carboxamide] | < 1 |  |

— patent publication US11780821B2, “Inhibitors of fibroblast activation protein” (Praxis Biotech LLC, priority 2017, dated 2023)
